The values that follow come from patent US20110065632A1, “PHARMACEUTICAL COMPOSITIONS OF SOMATOSTATIN-DOPAMINE CONJUGATES” (priority 2008, published 2011).

The target in one assay is T1, hsst3 (Homo sapiens, UniProt P32745).
T1 construct: expressed in transfected cells
As to the kind of experiment: Somatostatin receptor radioligand binding assay, hsst3. The protocol: (§1) Specificity and selectivity of the somatostatin analogues used to synthesize the somatostatin-dopamine chimers were determined by a radioligand binding assay on CHO-K1 cells stably transfected with each of the SSTR subtypes, as follows. Somatostatin analogs are also described in U.S. Patent Application Publication No. 02210006790. The complete coding sequences of genomic fragments of the SSTR 1 (e.g., Genbank accession No. M81829), SSTR 2 (e.g., Genbank accession No. M81830), SSTR 3 (e.g., Genbank accession No. L07062), and SSTR 4 (e.g., Genbank accession No. AL049651) genes and a cDNA clone for SSTR 5 (e.g., Genbank accession No. D16827) was subcloned into the mammalian expression vector pCMV (Life Technologies, Milano, Italy). Other SSTR sequences are known to the skilled artisan. Clonal cell lines stably expressing SSTR's 1-5 were obtained by transfection into CHO-K1 cells (ATCC, Manassas, Va., USA) using the calcium phosphate co-precipitation method (Davis L, et al., 1994 In: Basic methods in Molecular Biology, 2nd edition, Appleton & Lange, Norwalk, Conn., USA: 611-646). The plasmid pRSV-neo (ATCC) was included as a selectable marker. Clonal cell lines were selected in RPMI 1640 media containing 0.5 mg/mL of G418 (Life Technologies, Milano, Italy), ring cloned, and expanded into culture.
(§2) Membranes for in vitro receptor binding assays were obtained by homogenizing the CHO-K1 cells expressing the SSTR's subtypes in ice-cold 50 mM Tris-HCl and centrifuging twice at 39,000 g (10 min), with an intermediate resuspension in fresh buffer. The final pellets were resuspended in 10 mM Tris-HCl for assay.
(§3) For the SSTR 1, 3, 4, and 5 assays, aliquots of the membrane preparations were incubated 90 minutes at 25° C. with 0.05 nM [^125I-Tyr11]SS-14 in 50 mM HEPES (pH 7.4) containing 10 mg/mL BSA, 5 mM MgCl2, 200 KIU/mL Trasylol, 0.02 mg/mL bacitracin, and 0.02 mg/mL phenylmethylsuphonyl fluoride. The final assay volume was 0.3 mL.
(§4) For the SSTR 2 assay, 0.05 nM [^125I]MK-678 was employed as the radioligand and the incubation time was 90 minutes at 25° C. The incubations were terminated by rapid filtration through GF/C glass microfiber filters (Whatman Co.) (pre-soaked in 0.3% polyethylenimine) using a BRANDEL filtration manifold. Each tube and filter was washed three times with 5 mL aliquots of ice-cold buffer. Specific binding was defined as the total radioligand bound minus that bound in the presence of 1000 nM SS-14 for SSTR 1, 3, 4, and 5, or 1000 nM MK-678 for SSTR2.
(§5) Using the discussed assays, the inhibition constants (Ki) for the five human somatostatin receptors (hSSTR1-hSSTR5) and the dopamine-2 receptor (hUTII and hDA2) were measured for the exemplified somatostatin-dopamine conjugates, as follows: […]

The target of another assay is hDA2. As to the kind of experiment: Dopamine-2 receptor radioligand binding assay. Further details: species or system human. The conditions noted are these: [3H]spiperone. The protocol:
Specificity and selectivity for the dopamine-2 receptor of the dopamine analogues used to synthesize the somatostatin-dopamine chimers may be determined by a radioligand binding assay as follows.
Crude membranes were prepared by homogenization of frozen rat corpus striatum (Zivic Laboratories, Pittsburgh, Pa., USA) in 20 mL of ice-cold 50 mM Tris-HCl with a Brinkman Polytron cell disrupter (setting 6, 15 sec). Buffer was added to obtain a final volume of 40 mL, and the homogenate was centrifuged in a Sorval SS-34 rotor at 39,000 g for 10 minutes at 0-4° C. The resulting supernatant was decanted and discarded. The pellet was rehomogenized in ice-cold buffer, pre-incubated at 37° C. for 10 min, diluted, and centrifuged as before. The final pellet was resuspended in buffer and held on ice for the receptor binding assay.
For assay, aliquots of the washed membrane preparations and test compounds were incubated for 15 minutes (37° C.) with 0.25 nM [^3HI]spiperone (16.5 Ci.mmol, New England Nuclear, Boston, Mass., USA) in 50 mM Tris HCl, 120 mM NaCl, 5 mM KCl, 2 mM CaCl2, 1 mM MgCl2. The final assay volume was 1.0 mL. The incubations were terminated by rapid filtration through GF/B glass fibre filters using a Brandel filtration manifold. Each tube and filter was then washed three times with 5-mL aliquots of ice-cold buffer. Specific binding was defined as the total radioligand bound minus that bound in the presence of 1000 nM (+) butaclamol.
as §5

For another assay, the target named is T2, hsst2 (Homo sapiens, UniProt P30874).
T2 construct: expressed in transfected cells
As to the kind of experiment: Somatostatin receptor radioligand binding assay, hsst2. The settings on record: CHO-K1 membranes, [125I]MK-678; read-out: hsst2 Ki. The protocol:
as §1, §2, §4

The target of the next assay is T3, hsst1 (Homo sapiens, UniProt P30872).
T3 construct: expressed in transfected cells
As to the kind of experiment: Somatostatin receptor radioligand binding assay, hsst1. The conditions noted are these: CHO-K1 membranes, [125I-Tyr11]SS-14; read-out: hsst1 Ki. The protocol:
as §1, §2, §3, §4, §5

Another assay has as its target T4, hUTII (Homo sapiens, UniProt Q9UKP6).
T4 sequence (Q9UKP6 1-389): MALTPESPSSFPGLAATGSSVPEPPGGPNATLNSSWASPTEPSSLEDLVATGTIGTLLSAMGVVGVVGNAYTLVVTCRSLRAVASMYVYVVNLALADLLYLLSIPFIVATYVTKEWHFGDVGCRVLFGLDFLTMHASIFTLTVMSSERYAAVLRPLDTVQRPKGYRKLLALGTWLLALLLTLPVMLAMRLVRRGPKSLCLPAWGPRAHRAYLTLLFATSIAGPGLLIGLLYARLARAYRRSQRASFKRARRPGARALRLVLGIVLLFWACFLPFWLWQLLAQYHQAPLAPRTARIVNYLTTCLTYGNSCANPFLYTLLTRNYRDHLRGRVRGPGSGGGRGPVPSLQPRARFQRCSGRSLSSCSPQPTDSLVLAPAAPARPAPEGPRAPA
In words: hUTII inhibition constant. It counts as binding. The settings on record: read-out: hUTII Ki. The protocol:
as §5

The target of a further assay is T5, hsst5 (Homo sapiens, UniProt P35346).
T5 construct: expressed in transfected cells
In words: Somatostatin receptor radioligand binding assay, hsst5. The settings on record: CHO-K1 membranes, [125I-Tyr11]SS-14. The protocol:
as §1, §2, §3, §4

[1] abbreviates: CHO-K1 membranes, [125I-Tyr11]SS-14, read-out: hsst3 Ki.

Like-named read-outs stand apart in the source and are kept apart here. Numbered stars: 1 amine (or outer) side, 2 acyl side, 3 side chain; on linkers, the order of the positions; unused ones are H or OH. Bridge positions count the residues as written; N and C are the ends. Square brackets hold non-standard residues; d marks the D form. Peptide text beside a SMILES is read from it. * marks the point of attachment. X1 = CCCN1C[C@H](CSCC(=O)*)C[C@@H]2c3cccc4[nH]cc(c34)C[C@H]21; X2 = CN1C[C@H](CSCC(=O)*)C[C@@H]2c3cccc4[nH]cc(c34)C[C@H]21; Pipz(1-CH2CO,4-CH2CH2NH) = O=C(CN1CCN(CCN[*:1])CC1)[*:2]; Abu = CC[C@H](N)C(=O)O; AEEA = NCCOCCOCC(=O)O

What is called Ki is the equilibrium dissociation constant of an inhibitor or competing ligand from its target.

T5 sequence (P35346 whole entry): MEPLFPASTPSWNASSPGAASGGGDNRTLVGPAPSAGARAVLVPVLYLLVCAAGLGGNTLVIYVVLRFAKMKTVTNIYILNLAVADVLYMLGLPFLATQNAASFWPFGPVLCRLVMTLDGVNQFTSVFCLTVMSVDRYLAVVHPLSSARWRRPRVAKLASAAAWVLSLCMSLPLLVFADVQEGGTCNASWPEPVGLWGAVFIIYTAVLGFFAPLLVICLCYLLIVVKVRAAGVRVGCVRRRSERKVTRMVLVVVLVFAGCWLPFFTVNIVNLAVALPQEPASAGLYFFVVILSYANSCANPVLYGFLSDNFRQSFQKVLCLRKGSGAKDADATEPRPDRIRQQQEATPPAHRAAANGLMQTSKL
T1 sequence (P32745 whole entry): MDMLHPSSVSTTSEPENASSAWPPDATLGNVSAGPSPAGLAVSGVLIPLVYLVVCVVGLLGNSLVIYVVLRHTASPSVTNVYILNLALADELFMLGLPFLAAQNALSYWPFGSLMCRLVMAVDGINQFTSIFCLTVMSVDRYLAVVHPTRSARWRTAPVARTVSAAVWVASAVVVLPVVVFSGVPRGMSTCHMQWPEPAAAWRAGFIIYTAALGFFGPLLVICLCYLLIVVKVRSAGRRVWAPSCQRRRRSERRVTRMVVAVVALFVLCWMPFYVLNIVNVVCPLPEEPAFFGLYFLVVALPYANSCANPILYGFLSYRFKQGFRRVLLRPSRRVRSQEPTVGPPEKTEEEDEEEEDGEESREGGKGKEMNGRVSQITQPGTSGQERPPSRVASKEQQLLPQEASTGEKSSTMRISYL
T3 sequence (P30872 whole entry): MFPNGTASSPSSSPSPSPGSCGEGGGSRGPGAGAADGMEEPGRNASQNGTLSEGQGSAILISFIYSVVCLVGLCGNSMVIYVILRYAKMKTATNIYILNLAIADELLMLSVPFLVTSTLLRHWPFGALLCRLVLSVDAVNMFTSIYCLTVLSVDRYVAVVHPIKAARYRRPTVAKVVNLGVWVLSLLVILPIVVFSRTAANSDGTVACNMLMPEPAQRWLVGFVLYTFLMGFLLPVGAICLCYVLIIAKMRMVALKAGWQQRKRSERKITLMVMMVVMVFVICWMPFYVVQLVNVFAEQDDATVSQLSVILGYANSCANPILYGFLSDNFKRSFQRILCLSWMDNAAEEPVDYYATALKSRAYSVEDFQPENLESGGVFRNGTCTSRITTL
T2 sequence (P30874 whole entry): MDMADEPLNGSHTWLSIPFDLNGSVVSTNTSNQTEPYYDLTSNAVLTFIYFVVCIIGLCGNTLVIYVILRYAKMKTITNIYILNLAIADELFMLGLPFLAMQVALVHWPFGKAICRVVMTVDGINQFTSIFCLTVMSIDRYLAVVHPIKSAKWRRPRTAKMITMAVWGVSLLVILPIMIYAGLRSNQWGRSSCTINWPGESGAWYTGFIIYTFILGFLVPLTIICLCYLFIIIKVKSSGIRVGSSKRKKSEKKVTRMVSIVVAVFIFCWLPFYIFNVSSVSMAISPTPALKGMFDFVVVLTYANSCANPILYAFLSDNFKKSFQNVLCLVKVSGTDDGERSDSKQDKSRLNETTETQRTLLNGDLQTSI

In the case of `CCCN1C[C@H](CSCC(=O)N[C@H](Cc2ccccc2)C(=O)N[C@H]2CSSC[C@@H](C(=O)N[C@H](C(N)=O)[C@@H](C)O)NC(=O)[C@H](C(C)C)NC(=O)[C@H](CCCCN)NC(=O)[C@@H](Cc3c[nH]c4ccccc34)NC(=O)[C@H](Cc3ccc(OC(=O)CSC[C@@H]4C[C@@H]5c6cccc7[nH]cc(c67)C[C@H]5N(CCC)C4)c(I)c3)NC2=O)C[C@@H]2c3cccc4[nH]cc(c34)C[C@H]21` [Example 3], the Ki on hsst3 (setting [1]) turned out to be 235 nM; on hDA2, 16.7 nM; on hsst2 it was 0.37 nM; on hsst1, 1000 nM; on hUTII it was 73.5 nM.
As to `CCCN1C[C@H](CSCC(=O)N[C@H](Cc2ccccc2)C(=O)NCCOCCOCC(=O)N[C@H](Cc2ccccc2)C(=O)N[C@H]2CSSC[C@@H](C(=O)N[C@H](C(N)=O)[C@@H](C)O)NC(=O)[C@H](C(C)C)NC(=O)[C@H](CCCCN)NC(=O)[C@@H](Cc3c[nH]c4ccccc34)NC(=O)[C@H](Cc3ccc(O)c(I)c3)NC2=O)C[C@@H]2c3cccc4[nH]cc(c34)C[C@H]21` [Example 4], the inhibitory constant (Ki) on hsst3 (setting [1]) was determined as 397 nM; at hDA2 it was 29.6 nM; on hsst2, 0.84 nM; at hsst1, 1000 nM; at hUTII it was 83.7 nM.
The matching figures for `CCCN1C[C@H](CSCC(=O)NCCN2CCN(CC(=O)N[C@H](Cc3ccccc3)C(=O)N[C@H]3CSSC[C@@H](C(=O)N[C@H](C(N)=O)[C@@H](C)O)NC(=O)[C@H](C(C)C)NC(=O)[C@H](CCCCN)NC(=O)[C@@H](Cc4c[nH]c5ccccc45)NC(=O)[C@H](Cc4ccc(O)c(I)c4)NC3=O)CC2)C[C@@H]2c3cccc4[nH]cc(c34)C[C@H]21` [Example 25]: 423 nM, 345 nM, 1.09 nM, 1000 nM and 233 nM.
On to `CC[C@@H]1NC(=O)[C@H](CCCCN)NC(=O)[C@@H](Cc2c[nH]c3ccccc23)NC(=O)[C@H](Cc2ccc(O)cc2)NC(=O)[C@@H](NC(=O)[C@@H](Cc2ccc(O)cc2)NC(=O)[C@@H](Cc2ccc(O)cc2)NC(=O)[C@H](CCCCN)NC(=O)CN2CCN(CCNC(=O)CSC[C@@H]3C[C@@H]4c5cccc6[nH]cc(c56)C[C@H]4N(C)C3)CC2)CSSC[C@@H](C(=O)N[C@H](C(N)=O)[C@@H](C)O)NC1=O` [Example 32] (X2-[Pipz(1-CH2CO,4-CH2CH2NH)]K[dY][dY]CY[dW]K[Abu]CT-NH2; disulfide 5-10), for which the Ki at hsst3 stood at 45.6 nM; at hDA2, 136 nM; on hsst2 it was 0.22 nM; on hsst5 (hsst5 Ki), 13.8 nM; on hUTII, 267 nM.
For `CC[C@@H]1NC(=O)[C@H](CCCCN)NC(=O)[C@@H](Cc2c[nH]c3ccccc23)NC(=O)[C@H](Cc2ccc(O)cc2)NC(=O)[C@@H](NC(=O)[C@@H](Cc2ccc(O)cc2)NC(=O)[C@@H](Cc2ccc(O)cc2)NC(=O)[C@H](CCCCN)NC(=O)CSC[C@@H]2C[C@@H]3c4cccc5[nH]cc(c45)C[C@H]3N(C)C2)CSSC[C@@H](C(=O)N[C@H](C(N)=O)[C@@H](C)O)NC1=O` [Example 33] (X2-K[dY][dY]CY[dW]K[Abu]CT-NH2; disulfide 4-9), the Ki on hsst3 stood at 65.1 nM; at hDA2, 206 nM; at hsst2, 0.2 nM; at hsst5 (hsst5 Ki), 9.82 nM; at hUTII, 37.7 nM.
The matching figures for `CC[C@@H]1NC(=O)[C@H](CCCCN)NC(=O)[C@@H](Cc2c[nH]c3ccccc23)NC(=O)[C@H](Cc2ccc(O)cc2)NC(=O)[C@@H](NC(=O)[C@@H](Cc2ccc(O)cc2)NC(=O)[C@@H](Cc2ccc(O)cc2)NC(=O)[C@H](CCCCN)NC(=O)COCCOCCNC(=O)CSC[C@@H]2C[C@@H]3c4cccc5[nH]cc(c45)C[C@H]3N(C)C2)CSSC[C@@H](C(=O)N[C@H](C(N)=O)[C@@H](C)O)NC1=O` [Example 34] ({X2-AEEA}-K[dY][dY]CY[dW]K[Abu]CT-NH2; disulfide 4-9): 48.4 nM, 114 nM, 0.23 nM, 8.6 nM and 211 nM.
Regarding `CCCN1C[C@H](CSCC(=O)N[C@@H](CCCCN)C(=O)N[C@H](Cc2ccc(O)cc2)C(=O)N[C@H](Cc2ccc(O)cc2)C(=O)N[C@H]2CSSC[C@@H](C(=O)N[C@H](C(N)=O)[C@@H](C)O)NC(=O)[C@H](CC)NC(=O)[C@H](CCCCN)NC(=O)[C@@H](Cc3c[nH]c4ccccc34)NC(=O)[C@H](Cc3ccc(O)cc3)NC2=O)C[C@@H]2c3cccc4[nH]cc(c34)C[C@H]21` [Example 35] (X1-K[dY][dY]CY[dW]K[Abu]CT-NH2; disulfide 4-9), the Ki on hsst3 (setting [1]) is 109 nM; on hDA2, 55.8 nM; at hsst2, 0.27 nM; at hsst5 (read-out: hsst5 Ki), 13.6 nM; at hUTII, 134 nM.
Take `CCCN1C[C@H](CSCC(=O)NCCN2CCN(CC(=O)NCCN3CCN(CC(=O)N[C@H](Cc4ccccc4)C(=O)N[C@H]4CSSC[C@@H](C(=O)N[C@H](C(N)=O)[C@@H](C)O)NC(=O)[C@H](CC)NC(=O)[C@H](CCCCN)NC(=O)[C@@H](Cc5c[nH]c6ccccc56)NC(=O)[C@H](Cc5ccc(O)cc5)NC4=O)CC3)CC2)C[C@@H]2c3cccc4[nH]cc(c34)C[C@H]21` [Example 36] (X1-[Pipz(1-CH2CO,4-CH2CH2NH)][Pipz(1-CH2CO,4-CH2CH2NH)][dF]CY[dW]K[Abu]CT-NH2; disulfide 4-9): the Ki stood at 145 nM at hsst3 (setting [1]); 328 nM at hDA2; 1.67 nM on hsst2; 53.5 nM on hsst5 (read-out: hsst5 Ki); 3090 nM at hUTII.
The matching figures for `CC[C@@H]1NC(=O)[C@H](CCCCN)NC(=O)[C@@H](Cc2c[nH]c3ccccc23)NC(=O)[C@H](Cc2ccc(O)cc2)NC(=O)[C@@H](NC(=O)[C@@H](Cc2ccccc2)NC(=O)CN2CCN(CCNC(=O)CSC[C@@H]3C[C@@H]4c5cccc6[nH]cc(c56)C[C@H]4N(C)C3)CC2)CSSC[C@@H](C(=O)N[C@H](C(N)=O)[C@@H](C)O)NC1=O` [Example 38]: 61.9 nM, 411 nM, 0.35 nM, 28.1 nM and 1190 nM.
